Key:
[1] = test system: Schistosoma mansoni; assay: Antischistosomicidal activity against Schistosoma mansoni egyptian strain assessed as worm mortality at 5 ug/ml after 5 days by stereomicroscopy; assay type: functional; settings: 120 h
[2] = test system: Schistosoma mansoni; assay: Antischistosomicidal activity against Schistosoma mansoni egyptian strain assessed as worm mortality after 5 days by stereomicroscopy; assay type: functional, organism-based; settings: for IC90: Schistosoma mansoni, egyptian strain, 120 h

Structure (SMILES): Cn1c2nc3ccccc3c-2c(Cl)c2cc(Br)ccc21
- mortality at 5 µg/mL [1]: 25%

Structure (SMILES): Cn1c2nc3ccccc3c-2c(NCCc2c[nH]c3ccccc23)c2ccccc21
- mortality at 5 µg/mL [1]: 100%
- IC50 [2]: 2.7 uM/ml
- IC90 [2]: 3.95 µM

Structure (SMILES): Cn1c2nc3ccccc3c-2c(N2CCOCC2)c2ccccc21
- mortality at 5 µg/mL [1]: 66.7%

Structure (SMILES): Cn1c2nc3ccccc3c-2c(NCCCO)c2cc(Br)ccc21
- mortality at 5 µg/mL [1]: 66.7%

Structure (SMILES): Cn1c2nc3ccccc3c-2c(N2CCN(CCO)CC2)c2cc(C(F)(F)F)ccc21
- mortality at 5 µg/mL [1]: 25%

Structure (SMILES): Cn1c2nc3ccccc3c-2c(NCCCN2CCN(CCCNc3c4c5ccccc5nc-4n(C)c4ccc(Cl)cc34)CC2)c2cc(Cl)ccc21
- mortality at 5 µg/mL [1]: 100%
- IC50 [2]: 3.42 uM/ml
- IC90 [2]: 5.1 µM

Structure (SMILES): Cn1c2nc3ccccc3c-2c(NCCCN2CCN(CCCNc3c4c5ccccc5nc-4n(C)c4ccc(C(F)(F)F)cc34)CC2)c2cc(C(F)(F)F)ccc21
- mortality at 5 µg/mL [1]: 8.3%

Structure (SMILES): Cn1c2nc3ccccc3c-2c(Nc2ccc(CCO)cc2)c2ccccc21
- mortality at 5 µg/mL [1]: 58.3%

Structure (SMILES): Cn1c2nc3ccccc3c-2c(Nc2ccc(C(F)(F)F)cc2)c2ccccc21
- mortality at 5 µg/mL [1]: 100%
- IC50 [2]: 3.73 uM/ml
- IC90 [2]: 4.81 µM

Structure (SMILES): Cn1c2nc3ccccc3c-2c(Nc2ccc(CCO)cc2)c2cc(Br)ccc21
- mortality at 5 µg/mL [1]: 91.7%

Structure (SMILES): Cn1c2nc3ccccc3c-2c(Nc2ccccc2)c2ccccc21
- mortality at 5 µg/mL [1]: 100%
- IC50 [2]: 3.07 uM/ml
- IC90 [2]: 4.3 µM

Structure (SMILES): CN1CCN(c2c3c4ccccc4nc-3n(C)c3ccccc23)CC1
- mortality at 5 µg/mL [1]: 0%

Structure (SMILES): CN1CCN(c2c3c4ccccc4nc-3n(C)c3ccc(C(F)(F)F)cc23)CC1
- mortality at 5 µg/mL [1]: 100%
- IC50 [2]: 4.61 uM/ml
- IC90 [2]: 6.05 µM

Structure (SMILES): Cn1c2nc3ccccc3c-2c(Cl)c2cc(C(F)(F)F)ccc21
- mortality at 5 µg/mL [1]: 91.7%

Structure (SMILES): Clc1ccc2nc3[nH]c4ccccc4c3c(Cl)c2c1
- mortality at 5 µg/mL [1]: 0%

Structure (SMILES): CCN(CC)CCCC(C)Nc1c2c3ccccc3nc-2n(C)c2ccc(Cl)cc12 (stereo not drawn)
- mortality at 5 µg/mL [1]: 100%
- IC50 [2]: 11.74 uM/ml
- IC90 [2]: 16.8 µM

Structure (SMILES): Cn1c2nc3ccccc3c-2c(Cl)c2ccccc21 [11-CHLORONEOCRYPTOLEPINE]
- mortality at 5 µg/mL [1]: 75%

Structure (SMILES): Cn1c2nc3ccccc3c-2cc2ccccc21 [NEOCRYPTOLEPINE]
- mortality at 5 µg/mL [1]: 5%

Structure (SMILES): O=C(C1CCCCC1)N1CC(=O)N2CCc3ccccc3C2C1 (stereo not drawn) [PRAZIQUANTEL]
- mortality at 5 µg/mL [1]: 100%
- IC50 [2]: 0.21 uM/ml
- IC90 [2]: 0.37 µM
